One data set deals with M9 ENL1 cell line. The experiment in a line: Anti-leukemic activity, Annexin V/7-AAD flow cytometry. It counts as cell-based. The procedure:
(§1) The newly synthesized triazole derivatives of melampomagnolide B were screened for anti-leukemic activity against M9 ENL1 and primary AML cell lines; the latter were obtained with informed consent from human patients. Evaluations were performed after 24 h of drug exposure using flow cytometric analysis by labeling with Annexin V and 7-aminoactinomycin D (7-AAD) to delineate apoptotic cell populations. In all experiments PTL was included as a reference control.
(In general: In flow cytometry, cells or beads pass a laser one at a time.)

In data set [1] the test system is primary AML cell line AML1. Described as above. It is filed as cell-based, human. To be noted: 24 h of drug exposure, read-out: AML#1 (EC50). The protocol:
as §1

Data set [2] deals with primary AML cell line AML2. The data set is described as above. It is filed as cell-based, human. To be noted: 24 h of drug exposure, read-out: AML#2 (EC50). The procedure:
as §1

A short description of a further data set: Water solubility. It is filed as physicochemical. To be noted: fumarate salt vs free base.
Setting [3] is: 24 h of drug exposure, read-out: M9ENL1 (EC50).
The mark [4] stands for this setting: M9-ENL1, 24 h, 24 h of drug exposure, read-out: M9ENL1 (EC50).

Read-outs that look alike come from different tables or passages of the source.

We go through twelve compounds from US10428082B2, “Triazole derivatives of melampomagnolide B and methods of use thereof” (BioVentures, LLC, priority 2016, dated 2019).

Turning to `C/C1=C\CC[C@@]2(C)O[C@@H]2[C@H]2OC(=O)[C@H](CN(C)C)[C@@H]2CC1` [DMAPT, reference compound], the EC50 (in general, the concentration at which the effect is half-maximal) with M9 ENL1 cell line (setting [3]) is 6000 nM; in data set [1], 14700 nM; in data set [2] it was 11300 nM.

Regarding `C=C1C(=O)O[C@H]2[C@H]1CC/C(Cn1cc(CO)nn1)=C\CC[C@@]1(C)O[C@@H]21` [JVM 3-75], the concentration giving a half-maximal response (EC50) in the data set on M9 ENL1 cell line (setting [3]) is 38000 nM.

Turning to `C=C1C(=O)O[C@H]2[C@H]1CC/C(Cn1cc(COC(=O)c3ccccc3)nn1)=C\CC[C@@]1(C)O[C@@H]21` [JVM 3-76], in the data set on M9 ENL1 cell line (setting [3]), the EC50 came out at 11000 nM.

`C=C1C(=O)O[C@H]2[C@H]1CC/C(Cn1cc(CCCC)nn1)=C\CC[C@@]1(C)O[C@@H]21` [JVM 4-20]: the EC50 with M9 ENL1 cell line (setting [3]) amounted to 4300 nM.

For the compound `C=C1C(=O)O[C@H]2[C@H]1CC/C(Cn1cc(-c3ccc(F)c(C)c3)nn1)=C\CC[C@@]1(C)O[C@@H]21` [JVM 4-27, (1aR,7aS,10aS,10bS,E)-5-((4-(4-Fluoro-3-methylphenyl)-1H-1,2,3-triazol-1-yl)methyl)-1a-methyl-8-methylene-2,3,6,7,7a,8,10a,10b-octahydrooxireno[2′,3′:9,10]cyclodeca[1,2-b]furan-9(1aH)-one], the EC50 in the data set with M9 ENL1 cell line (setting [4]) amounted to 1200 nM; in data set [1] (Homo sapiens, AML1, 24 h) it was 1300 nM; in data set [2] (Homo sapiens, 24 h), 1200 nM.

As for `CN(C)CC1C(=O)O[C@H]2[C@H]1CC/C(Cn1cc(-c3cc(C(F)(F)F)cc(C(F)(F)F)c3)nn1)=C\CC[C@@]1(C)O[C@@H]21` (stereo partly drawn) [JVM 4-29B], the EC50 was 1900 nM in the data set on M9 ENL1 cell line (setting [4]); 1100 nM in data set [1] (Homo sapiens, AML1, 24 h); 2300 nM in data set [2] (Homo sapiens, 24 h).

`CN(C)CC1C(=O)O[C@H]2[C@H]1CC/C(Cn1cc(-c3cc(C(F)(F)F)cc(C(F)(F)F)c3)nn1)=C\CC[C@@]1(C)O[C@@H]21` (stereo partly drawn) [JVM 4-29C]: the EC50 was determined as 1700 nM in the data set on M9 ENL1 cell line (setting [3]), 1000 nM in data set [1] and 2900 nM in data set [2]. In the data set “Water solubility”, the “water solubility compared with free base form” value is reported as “more water soluble than the free base form”.

As for `C=C1C(=O)O[C@H]2[C@H]1CC/C(Cn1cc(CCCCl)nn1)=C\CC[C@@]1(C)O[C@@H]21` [JVM 4-31], the EC50 with M9 ENL1 cell line (setting [3]) came to 3800 nM.

Consider `C#Cc1cccc(-c2cn(C/C3=C/CC[C@@]4(C)O[C@H]4[C@H]4OC(=O)C(=C)[C@@H]4CC3)nn2)c1` [JVM 4-41, (1aR,7aS,10aS,10bS,E)-5-((4-(3-Ethynylphenyl)-1H-1,2,3-triazol-1-yl)methyl)-1a-methyl-8-methylene-2,3,6,7,7a,8,10a,10b-octahydrooxireno[2′,3′:9,10]cyclodeca[1,2-b]furan-9(1aH)-one], for which the half-maximal effective concentration (EC50) worked out at 200 nM in the data set on M9 ENL1 cell line (setting [4]) and 200 nM with M9 ENL1 cell line (M9-ENL1, text value in nM, read-out: EC50 against the M9 ENL cell line). Moreover, the “fold more potent than parthenolide (PTL)” value in the data set with M9 ENL1 cell line (M9 ENL1 cells) is reported as 26 fold.

In the case of `C=C1C(=O)O[C@H]2[C@H]1CC/C(Cn1cc(-c3ccccn3)nn1)=C\CC[C@@]1(C)O[C@@H]21` [JVM 4-47, (1aR,7aS,10aS,10bS,E)-1a-Methyl-8-methylene-5-((4-(pyridin-2-yl)-1H-1,2,3-triazol-1-yl)methyl)-2,3,6,7,7a,8,10a,10b-octahydrooxireno[2′,3′:9,10]cyclodeca[1,2-b]furan-9(1aH)-one], the EC50 in the data set on M9 ENL1 cell line (setting [4]) came out at 3200 nM; in data set [1] (Homo sapiens, AML1, 24 h), 7900 nM.

In the case of `C=C1C(=O)O[C@H]2[C@H]1CC/C(Cn1cc(-c3cc(F)cc(F)c3)nn1)=C\CC[C@@]1(C)O[C@@H]21` [JVM 4-48, (1aR,7aS,10aS,10bS,E)-5-((4-(3,5-Difluorophenyl)-1H-1,2,3-triazol-1-yl)methyl)-1a-methyl-8-methylene-2,3,6,7,7a,8,10a,10b-oetahydrooxireno[2′,3′:9,10]cyclodeca[1,2-b]furan-9(1aH)-one], the concentration giving a half-maximal response (EC50) was 1500 nM in the data set on M9 ENL1 cell line (setting [4]) and 2400 nM in data set [1] (Homo sapiens, AML1, 24 h).

Take `C=C1C(=O)O[C@@H]2[C@H]3O[C@]3(C)CC/C=C(\CO)CC[C@@H]12` [MMB, Melampomagnolide B]: the EC50 in the data set with M9 ENL1 cell line (setting [3]) was 16000 nM; in data set [1], 20500 nM; in data set [2], 24300 nM.
